ChEMBL document CHEMBL3576838, “Synthesis and in vitro and in vivo biological evaluation of substituted nitroquinoxalin-2-ones and 2,3-diones as novel trichomonacidal agents” (Eur J Med Chem, 2015)
pIC50: −log10 of the molar value.

What was measured:
Trichomonas vaginalis [1] = assay: Trichomonicidal activity against Trichomonas vaginalis JH31A#4 trophozite assessed as inhibition of parasite growth at 37.5 uM after 24 hrs by resazurin redox dye based fluorimetric microtiter method; type: functional; details: JH31A#4, 24 h
Trichomonas vaginalis [2] = assay: Trichomonicidal activity against Trichomonas vaginalis JH31A#4 trophozite assessed as inhibition of parasite growth at 9.37 uM after 24 hrs by resazurin redox dye based fluorimetric microtiter method; type: functional; details: JH31A#4, 24 h
Trichomonas vaginalis [3] = assay: Trichomonicidal activity against Trichomonas vaginalis JH31A#4 trophozite assessed as inhibition of parasite growth at 18.75 uM after 24 hrs by resazurin redox dye based fluorimetric microtiter method; type: functional; details: JH31A#4, 24 h
Trichomonas vaginalis [4] = assay: Trichomonicidal activity against Trichomonas vaginalis JH31A#4 trophozite assessed as inhibition of parasite growth at 75 uM after 24 hrs by resazurin redox dye based fluorimetric microtiter method; type: functional; details: JH31A#4, 24 h
Trichomonas vaginalis [5] = assay: Trichomonicidal activity against Trichomonas vaginalis JH31A#4 trophozite assessed as inhibition of parasite growth at 300 uM after 24 hrs by resazurin redox dye based fluorimetric microtiter method; type: functional; details: JH31A#4, 24 h
Trichomonas vaginalis [6] = assay: Trichomonicidal activity against Trichomonas vaginalis JH31A#4 trophozite assessed as inhibition of parasite growth at 150 uM after 24 hrs by resazurin redox dye based fluorimetric microtiter method; type: functional; details: JH31A#4, 24 h
Trichomonas vaginalis [7] = assay: Trichomonicidal activity against Trichomonas vaginalis JH31A#4 trophozite assessed as inhibition of parasite growth after 24 hrs by resazurin redox dye based fluorimetric microtiter method; type: functional, organism-based; details: JH31A#4, 24 h
Trichomonas vaginalis [8] = assay: Trichomonicidal activity against Trichomonas vaginalis JH31A#4 trophozite assessed as inhibition of parasite growth at 10 ug/ml after 24 hrs by resazurin redox dye based fluorimetric microtiter method; type: functional; details: JH31A#4, 24 h, read-out: GI
[9] = Selectivity index, ratio of CC50 for African green monkey Vero cells to IC50 for Trichomonas vaginalis JH31A#4 trophozite; type: functional
[10] = Cytotoxicity against African green monkey Vero cells assessed as inhibition of cell growth after 24 hrs by resazurin redox dye based fluorimetric microtiter method; details: chlorocebus sabaeus
Trichomonas vaginalis [11] = assay: Trichomonicidal activity against Trichomonas vaginalis C-1:NIH trophozoites infected in NMRI mouse assessed as reduction of pathogenicity at 25 mg/kg/day, po administered for 7 days from day 3 to day 10 post-infection measured at day 15 post-infection; type: functional
Vero = assay: Cytotoxicity against African green monkey Vero cells at 300 uM after 24 hrs by resazurin redox dye based fluorimetric microtiter method; type: cell-based; details: chlorocebus sabaeus
Mus musculus = assay: Toxicity against NMRI mouse infected with Trichomonas vaginalis C-1:NIH trophozoites assessed as animal death at 50 to 100 mg/kg, po administered for 7 days from day 3 to day 10 post-infection measured at day 15 post-infection; type: organism-based; details: in vivo, 168 h
Trichomonas vaginalis [12] = assay: Trichomonicidal activity against Trichomonas vaginalis C-1:NIH trophozoites infected in NMRI mouse assessed as reduction of pathogenicity at 50 mg/kg, po administered for 7 days from day 3 to day 10 post-infection measured at day 15 post-infection; type: functional
Trichomonas vaginalis [13] = assay: Trichomonicidal activity against Trichomonas vaginalis C-1:NIH trophozoites infected in NMRI mouse assessed as reduction of pathogenicity at 100 mg/kg, po administered for 7 days from day 3 to day 10 post-infection measured at day 15 post-infection; type: functional

| Structure (SMILES) | inhibition at 37.5 µM (Trichomonas vaginalis [1]) | inhibition at 9.37 µM (Trichomonas vaginalis [2]) | inhibition at 18.75 µM (Trichomonas vaginalis [3]) | inhibition at 75 µM (Trichomonas vaginalis [4]) | inhibition at 300 µM (Trichomonas vaginalis [5]) | inhibition at 150 µM (Trichomonas vaginalis [6]) | pIC50 (Trichomonas vaginalis [7]) | inhibition of growth at 10 µg/mL (Trichomonas vaginalis [8]) | Ratio CC50/IC50 [9] | CC50 at 24 h [10] | inhibition in vivo at 25 mg/kg/day (Trichomonas vaginalis [11]) | Activity (Vero) | Activity (Mus musculus) | inhibition in vivo at 50 mg/kg (Trichomonas vaginalis [12]) | inhibition in vivo at 100 mg/kg (Trichomonas vaginalis [13]) |
| --- | --- | --- | --- | --- | --- | --- | --- | --- | --- | --- | --- | --- | --- | --- | --- |
| Cn1c(=O)c(=O)[nH]c2cc([N+](=O)[O-])ccc21 | 33.7% | 8.89% | 17.8% | 38.6% | 41.7% | 39% | 3.95 | – | – | – | – | – | – | – | – |
| O=c1[nH]c2cc([N+](=O)[O-])ccc2n(CCCCCCl)c1=O | 0.85% | 0% | 0.42% | 9.7% | 94% | 47.1% | 3.83 | – | – | – | – | – | – | – | – |
| Cn1c(=O)c(=O)n(C)c2cc([N+](=O)[O-])ccc21 | 18.6% | 12.9% | 15.8% | 22.5% | 61.4% | 35.4% | 3.63 | – | – | – | – | – | – | – | – |
| CN1C(=O)CN(CCCCCCCl)c2ccc([N+](=O)[O-])cc21 | – | – | – | – | – | – | – | 94% | – | – | – | – | – | – | – |
| O=C1CN(CCCCCl)c2ccc([N+](=O)[O-])cc2N1 | – | – | – | – | – | – | – | 73% | – | – | – | – | – | – | – |
| CN1C(=O)CN(CCCCCCl)c2ccc([N+](=O)[O-])cc21 | – | – | – | – | – | – | – | 73% | – | – | – | – | – | – | – |
| Cc1ncc([N+](=O)[O-])n1CCO [METRONIDAZOLE] | 99.4% | 82.7% | 96% | 100% | 100% | 100% | 5.38 | – | >10 | > 600 µM | 94% | 0% | – | – | – |
| CN1C(=O)CN(CCN2CCCCC2)c2ccc([N+](=O)[O-])cc21 | 59.6% | 7.8% | 13.9% | 96% | 100% | 100% | 4.52 | – | >10 | > 300 µM | – | 0% | – | – | – |
| CN1C(=O)CN(CCCN2CCCCC2)c2ccc([N+](=O)[O-])cc21 | 26.6% | 6.97% | 18.6% | 28.4% | 99.3% | 63.3% | 3.96 | 7% | – | – | – | – | – | – | – |
| Cl.O=C1CN(CCCN2CCCCC2)c2ccc([N+](=O)[O-])cc2N1 | 70.3% | 24.2% | 58.4% | 82.4% | 100% | 98.9% | 4.74 | 7% | >10 | > 300 µM | – | 3.26% | Non-toxic | 50.7% | 46.1% |
| Cn1c(=O)c(=O)n(CCCCCCCl)c2ccc([N+](=O)[O-])cc21 | 53.1% | 31.6% | 42.1% | 75.5% | 92.6% | 84.7% | 4.59 | – | >10 | > 300 µM | – | 14.14% | – | – | – |
| Cn1c(=O)c(=O)n(CCCCCBr)c2ccc([N+](=O)[O-])cc21 | 26.9% | 17.8% | 21.5% | 40.9% | 51.1% | 42.8% | 3.59 | – | – | – | – | – | – | – | – |
| CN(C)CCN1CC(=O)N(C)c2cc([N+](=O)[O-])ccc21 | 20.4% | 1.36% | 6.7% | 73.9% | 100% | 99.9% | 4.29 | 7% | 12.77 | 648 µM | – | 17.29% | – | – | – |
| O=C1CN(CCCCCCl)c2ccc([N+](=O)[O-])cc2N1 | – | – | – | – | – | – | – | 73% | – | – | – | – | – | – | – |
